# According to patent publication US12648569B2 (priority 2022, dated 2026):
# Structures can show the parent of a compound that is named as a salt.
# Test system: Ralstonia solanacearum MN R.s1 strain
# Assay type: in vivo
# Conditions: tomato seedlings, leaf cutting with scissors soaked in agent + R.s suspension, 7 d at 30° C.
row,Compound,Mortality/% [%]
1,neophytomycin [Positive control group],16.67

# Same assay, conditions: tomato seedlings, leaf cutting, relative to negative control
row,Compound,Relative control effect/% [%]
1,neophytomycin [Positive control group],81.01

# Test system: Ralstonia solanacearum R.s (MN R.s1)
# Assay type: in vivo
# Conditions: tomato seedlings, roots soaked 10 min, R.s irrigated after 7 d
Compound,Control effect/% [%],Disease index/% [%],Morbidity/% [%]
neophytomycin [Positive control group],37.30,14.00,16.70

# Test system: M173
# Conditions: not given
row,Compound,Compatibility
1,O=P([O-])(O)O.[K+],Compatible
2,N.N.O=S(=O)(O)O [Ammonium sulfate],Compatible
3,COC(=O)Nc1nc2ccccc2[nH]1 [Carbendazim],Compatible
4,N#Cc1c(Cl)c(Cl)c(Cl)c(C#N)c1Cl [Chlorothalonil],Compatible
5,CN/C(=N/CC1CCOC1)N[N+](=O)[O-] (stereo not shown) [Dinotefuran],Compatible
6,O=[N+]([O-])c1cc(C(F)(F)F)c(Cl)c([N+](=O)[O-])c1Nc1ncc(C(F)(F)F)cc1Cl [Fluazinam],Compatible
7,CCO[PH](=O)O [Fosetyl-aluminum],Compatible
8,CC1(C)[C@H](C(=O)O[C@H](C#N)c2cccc(Oc3ccccc3)c2)[C@@H]1/C=C(\Cl)C(F)(F)F [Gamma-cyhalothrin],Compatible
9,COCC(=O)N(c1c(C)cccc1C)[C@H](C)C(=O)OC [Metalaxyl-M],Compatible
10,CCCOC(=O)NCCCN(C)C [Propamocarb hydrochloride],Compatible
11,O=[N+]([O-])c1c(Cl)c(Cl)c(Cl)c(Cl)c1Cl [Quintozene],Compatible
12,CN1COCN(Cc2cnc(Cl)s2)/C1=N\[N+](=O)[O-] [Thiamethoxam],Compatible
13,CN(C)C(=S)SSC(=S)N(C)C [Thiram],Compatible
14,NC(N)=O [Urea],Compatible
